Laboratory results: patent publication US20230303599A1, “PRODRUGS OF PHOSPHONAMIDE NUCLEOTIDE ANALOGUES AND THEIR PHARMACEUTICAL USE” (priority 2020, published 2023)
pEC50: −log10 of the molar value. ≈ marks a conversion by molar mass, not a printed value. Read-outs that look alike come from different tables or passages of the source.

Legend:
HIV-1 (IIIB) = test: Antiviral (HIV) assay in MT-4 cells; assay type: cell-based; settings: for EC50: Human immunodeficiency virus 1, IIIB, MT4, 120 h, read-out: MT4 HIV EC50 (nM); for pEC50: HIV-1 IIIB in MT-4 cells, 5 days, Cell Titer Glo, average of at least two independent experiments, read-out: MT4 HIV EC50
Description: Example 104: Antiviral (HIV) Assay in MT-4 Cells
Compounds were tested in a high-throughput 384-well assay format for their ability to inhibit the replication of HIV-1 (IIIB) in MT-4 cells. Compounds were serially diluted (1:3) in DMSO on 384-well polypropylene plates and further diluted 200-fold into complete RPMI media (10% FBS, 1% P/S) using the Biotek Micro Flow and Labcyte ECHO acoustic dispenser. Each plate contained up to 8 test compounds, with negative (no drug) and positive (5 μM AZT) controls. MT-4 cells were pre-treated with 10 μL of either RPMI (mock-infected) or a fresh 1:250 dilution of HIV-1 IIIB concentrated virus stock. Infected and uninfected MT-4 cells were further diluted in complete RPMI media and added to each plate using a Micro Flow dispenser. After 5 days incubation in a humidified and temperature-controlled incubator (37° C.), Cell Titer Glo (Promega) was added to the assay plates and chemiluminescence read using an Envision plate-reader. EC50 values were defined as the compound concentration that causes a 50% decrease in luminescence signal and were calculated using a sigmoidal dose-response model to generate curve fits and are shown in Table 1.

[1] = Cytotoxicity assay in MT-4 cells; assay type: cell-based; settings: human, uninfected MT-4 cells, average of at least two independent experiments, read-out: MT4 CC50
Outline: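 Uninfected MT-4 cells were incubated 5 days at 37 °C with 1:3 serially diluted compound in RPMI (10% FBS), with 10 μM puromycin as baseline cytotoxicity. Viability was read by CellTiter-Glo luminescence. Values are concentrations giving 50% luminescence decrease, from sigmoidal dose-response fits.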

[2] = Kinetic solubility analysis; assay type: physicochemical; settings: 1× PBS, 24.2 °C, aqueous buffer, kinetic from dmso stock; pH 7.4 PBS, 1% DMSO, 24-hour incubation at ambient temperature
Outline: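 Compounds from 10 mM DMSO stocks were incubated in 0.1 N HCl or 1× PBS pH 7.4 (1.0% DMSO, 100 μM maximum theoretical) for 24 h at 24.2-27.5 °C, then vacuum filtered. Filtrates were quantified in μM by chemiluminescent nitrogen detection against a calibration curve, corrected for background nitrogen; values for adjacent ring-nitrogen compounds were raised ~25%.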

PBMCs = test: TFV-DP formation in peripheral blood mononuclear cells (PBMCs); assay type: in vitro ADME, human; settings: 1 μM compound, 2 hrs at 37° C., 50% serum, activated PBMCs; average of at least two independent experiments
Description: Example 109: TFV-DP Formation in Peripheral Blood Mononuclear Cells (PBMCs)
Compounds were tested in a 96-well assay format for the level of TFV-DP loading in PBMCs in the presence of human serum. PBMCs were activated with 100 units/mL recombinant human […] and […] phytohaemagglutinin (PHA) for 36 hrs. After activation, PBMCs (2 million) were incubated with compounds (1 μM) and cell culture media with 50% serum in a 96 well plate for 2 hrs at 37° C. Cells were transferred to a 96 well deep block plate and spun down. Liquid was removed, and cells were washed 2× with 1 mL of 0.9% saline with spin downs between washes. After a final wash and liquid removal, 500 μL of MeOH+200 nM C1-ATP+200 nM [adenine-^13Cs]-tenofovir diphosphate (tetra ammonium salt) was added and thoroughly mixed with the cells. The plate was then spun down and 450 μL of sample was transferred to a new 96 well plate. Supernatants were then evaporated, reconstituted in 80 μl of 1 mM ammonium phosphate and thoroughly vortexed. Blank samples were pooled for serial dilution to construct calibration standards for TFV, TFV-DP and TFV-TP in pmol/million cells. Samples were then transferred to a short-well 96 well plate, centrifuged and injected on an LC-MS/MS for quantification. Values were reported in μM units using an intracellular volume of […].

Row | SMILES | EC50 (HIV-1 (IIIB)) [nM] | CC50 at 5 days [1] [nM] | solubility kinetic at 24 h [2] [µg/mL] | Average PBMC TFV-DP (μM) (PBMCs) | also measured
1 | CCCCCCOC(=O)C(C)(C)NP(=O)(CO[C@H](C)Cn1cnc2c(NC(=O)CCCSC(C)=O)ncnc21)NC(C)(C)C(=O)OCCCCCC [Example 97, Dihexyl 2,2′-(((((1-(6-(4-(acetylthio)butanamido)-9H-purin-9-yl)propan-2-yl)oxy)methyl)phosphoryl)bis(azanediyl))(R)-bis(2-methylpropanoate)] | 13 | 10700 | 13 (≈ 16.9 µM) | – | –
2 | C[C@H](Cn1cnc2c(N)ncnc21)OCP(=O)(NC(C)(C)C(=O)OCCc1ccccc1)NC(C)(C)C(=O)OCCc1ccccc1 [Example 103, Diphenethyl 2,2′-(((((1-(6-amino-9H-purin-9-yl)propan-2-yl)oxy)methyl)phosphoryl)bis(azanediyl))(R)-bis(2-methylpropanoate)] | > 500 | > 42500 | – | – | –
3 | C[C@H](Cn1cnc2c(N)ncnc21)OCP(=O)(NC(C)(C)C(=O)O[C@H]1CC[C@H](C(C)(C)C)CC1)NC(C)(C)C(=O)O[C@H]1CC[C@H](C(C)(C)C)CC1 [Example 12, Bis(trans-4-(tert-butyl)cyclohexyl) 2,2′-((((((R)-1-(6-amino-9H-purin-9-yl)propan-2-yl)oxy)methyl)phosphoryl)bis(azanediyl))bis(2-methylpropanoate)] | – | – | < 1 | BLQ | –
4 | C[C@H](Cn1cnc2c(N)ncnc21)OCP(=O)(NC(C)(C)C(=O)OC1CCOCC1)NC(C)(C)C(=O)OC1CCOCC1 [Example 24, Bis(tetrahydro-2H-pyran-4-yl) 2,2′-(((((1-(6-amino-9H-purin-9-yl)propan-2-yl)oxy)methyl)phosphoryl)bis(azanediyl))(R)-bis(2-methylpropanoate)] | – | – | 69 (≈ 110 µM) | BLQ | –
5 | CCCCCCOC(=O)C(C)(C)NP(=O)(CO[C@H](C)Cn1cnc2c(NC(=O)CC(C)(C)CC(=O)OCc3oc(=O)oc3C)ncnc21)NC(C)(C)C(=O)OCCCCCC [Example 102, Dihexyl 2,2′-(((((1-(6-(3,3-dimethyl-5-((5-methyl-2-oxo-1,3-dioxol-4-yl)methoxy)-5-oxopentanamido)-9H-purin-9-yl)propan-2-yl)oxy)methyl)phosphoryl)bis(azanediyl))(R)-bis(2-methylpropanoate)] | – | 45100 | 10 (≈ 11.4 µM) | BLQ | –
6 | CCCCCCOC(=O)C(C)(C)NP(=O)(CO[C@H](C)Cn1cnc2c(NC(=O)CC(C)(C)c3c(C)cc(C)cc3OC(C)=O)ncnc21)NC(C)(C)C(=O)OCCCCCC [Example 100, Dihexyl 2,2′-(((((1-(6-(3-(2-acetoxy-4,6-dimethylphenyl)-3-methylbutanamido)-9H-purin-9-yl)propan-2-yl)oxy)methyl)phosphoryl)bis(azanediyl))(R)-bis(2-methylpropanoate)] | 22 | – | – | – | –
7 | C[C@H](Cn1cnc2c(N)ncnc21)OCP(=O)(NC(C)(C)C(=O)OCC1CCC(C)(C)CC1)NC(C)(C)C(=O)OCC1CCC(C)(C)CC1 [Example 13, Bis((4,4-dimethylcyclohexyl)methyl) 2,2′-(((((1-(6-amino-9H-purin-9-yl)propan-2-yl)oxy)methyl)phosphoryl)bis(azanediyl))(R)-bis(2-methylpropanoate)] | – | 5470 | < 1 | – | pEC50 (HIV-1 (IIIB); Human immunodeficiency virus 1, MT4, 120 h): 7.80
8 | CC(C)CCCOC(=O)C(C)(C)NP(=O)(CO[C@H](C)Cn1cnc2c(N)ncnc21)NC(C)(C)C(=O)OCCCC(C)C [Example 67, Bis(4-methylpentyl) 2,2′-(((((1-(6-amino-9H-purin-9-yl)propan-2-yl)oxy)methyl)phosphoryl)bis(azanediyl))(R)-bis(2-methylpropanoate)] | – | – | – | – | pEC50 (HIV-1 (IIIB)): 8.10; Average PBMC TFV-DP (PBMCs): 5.5 µM
